Where no end group is shown, it is not given here.

The subject of experiment [1] is HCMV strain AD169. In words: HCMV plaque formation assay in MRC-5 cells. The note with it: for inhibition of HCMV plaque formation as compared to the virus control: 10 micrograms per ml, 7-10 days.
The test system of experiment [2] is Primary Human endothelial cells (HUVEC). Kind of experiment: Endothelial cell migration assay. The experiment is classed as cell-based. The note with it: 10 micrograms per ml, 22 hours, combination peptide 1:peptide 2 0.95 mole: 1.05 mole.
Experiment [3] relates to spleen cells. Kind of experiment: Th1/Th2 cytokine profiling assay. The note with it: 10 micrograms per ml; Ovalbumin restimulation, 72 hours. The experiment is classed as cell-based, Balb/c mice.
In experiment [4] the test system is HUVEC. In words: Endothelial tube formation assay. It is filed as cell-based, human. The note with it: 10 micrograms per ml, 20 hours, combination peptide 1:peptide 2 0.95 mole: 1.05 mole. The source says: Positive control was vehicle only.
For experiment [5], the system named is hepatitis B virus (HBV) ayw strain. In words: HBV experimental assay system (HepG2-2.2.15, TaqMan PCR of secreted HBV DNA). The note with it: 10 micrograms per ml; HepG2-2.2.15 cells, six days. The experiment is classed as cell-based. The source says: HepG2-2.2.15 is a stable cell line containing the hepatitis B virus (HBV) ayw strain genome (ATCC Cat. No. CRL-11997). Antiviral compounds blocking any late step of viral replication such as transcription, translation, pregenome encapsidation, reverse transcription, particle assembly and release can be identified and characterized using this cell line. In this assay, an active compound will reduce the production of secreted HBV from cells, measured by utilizing real time quantitative PCR (TaqMan) assay to directly and accurately measure HBV DNA copies.
HepG2-2.2.15 cells were plated in 96-well microtiter plates. After 16-24 hours the confluent monolayer of HepG2-2.2.15 cells was washed and the medium was replaced with complete medium containing test peptides—10 micrograms per ml—in duplicate. […] Six days following the initial administration of the peptides, the cell culture supernatants was collected, treated with pronase and DNAse and then used in a real-time quantitative TaqMan PCR assay. The PCR-amplified HBV DNA was detected in real-time by monitoring increases in fluorescence signals that result from the exonucleolytic degradation of a quenched fluorescence probe molecule that hybridizes to the mplified HBV DNA. […] Antiviral activity was calculated from the reduction in HBV DNA levels (% virus control). […]

For the compound `Nc1nc(O)c2ncn(COC(CO)CO)c2n1` [Ganciclovir, reference compound], the “antiviral activity of positive control compound (HCMV)” value in experiment [1] (positive control, HCMV AD169) is recorded as “expected levels of antiviral activity”.

For “Cys-Ser-Arg-Ala-Arg-Lys-Gln-Ala-Ala-Ser-Ile-Lys-Val-Ala-Val-Ser-Ala-Asp-Arg-OH (CSRARKQAASIKVAVSADR-OH) [peptide 1]”, the “inhibition of the migration of human endothelial cells” value in experiment [2] was 32%. In experiment [3], the “IFNγ spleen cells; TH1 response (% of control)” value is recorded as 88.8 % of control, the “IL-2 spleen cells (% of control)” value is 66.8 % of control, the “IL-4 spleen cells; TH2 response (% of control)” value is 148.8 % of control and the “IL-5 spleen cells; TH2 response (% of control)” value is on record as 64.5 % of control. In experiment [3], the “TNF-a spleen cells; TH1 response (% of control)” value is recorded as 101.0 % of control. In addition, the “inhibition of HCMV plaque formation as compared to the virus control” value in experiment [1] is “did not inhibit”. Moreover, the “inhibition of the tube formation of endothelial cells” value in experiment [4] is listed as 30%. For the same compound, the “inhibition of HBV replication as compared to the virus control infection” value in experiment [5] was found to be 22.1%.

Regarding “Pro-His-Pro-Phe-His-Leu-Phe-Val-Tyr-OH (PHPFHLFVY-OH) [peptide 2]”, the “inhibition of the migration of human endothelial cells” value in experiment [2] is listed as 33%. Besides, in experiment [3], the “IFNγ spleen cells; TH1 response (% of control)” value is recorded as 76.6 % of control, the “IL-2 spleen cells (% of control)” value is 70.7 % of control, the “IL-4 spleen cells; TH2 response (% of control)” value is reported as 113.5 % of control and the “IL-5 spleen cells; TH2 response (% of control)” value was 57.6 % of control. For the same compound, in experiment [3], the “TNF-a spleen cells; TH1 response (% of control)” value is on record as 111.8 % of control. Besides, the “inhibition of HCMV plaque formation as compared to the virus control” value in experiment [1] was “did not inhibit”. Also, the “inhibition of the tube formation of endothelial cells” value in experiment [4] was found to be 27%. Also, the “inhibition of HBV replication as compared to the virus control infection” value in experiment [5] is listed as “no effect”.

The values are drawn from US20100210555A1, “USE OF A LAMININ PEPTIDE AS A THERAPEUTIC AGENT” (priority 2007, published 2010).
